According to patent publication US20240148888A1, “INTERCELLULAR ADHESION MOLECULE 1 (ICAM1) ANTIBODY DRUG CONJUGATE AND USES THEREOF” (priority 2021, published 2024):
Values belong to the compound of their own block, whether it stands above or below them.

Tests used:
[1] = system: MDA-MB-436 tumors; experiment: In vivo efficacy, orthotopic TNBC model, standard setting; settings: 5 mg/kg equivalent dosage
Experimental: For the in vivo efficacy studies, orthotopic TNBC tumors (MDA-MB-436 or MDA-MB-231) were established in 6-8 weeks old female nude mice as described above. Tumors were grown to reach 100 mm^3 for standard setting treatment or 500 mm^3 for late-stage treatment. […] Tumor growth was monitored weekly using caliper. At the endpoint, animals were euthanized with CO2 and orthotopic tumors were excised to measure their mass.

[2] = molecular target: intercellular adhesion molecule 1 (ICAM1) from Homo sapiens (Homo sapiens) (UniProt P05362); experiment: cell-based or functional assay
[3] = system: MDA-MB-231 cells; settings: reported in literature; cited from earlier work
[4] = system: refractory TNBC; settings: refractory TNBC patients; cited from earlier work

Sequence of intercellular adhesion molecule 1 (ICAM1) from Homo sapiens (Homo sapiens) (P05362 28-532 limits assumed): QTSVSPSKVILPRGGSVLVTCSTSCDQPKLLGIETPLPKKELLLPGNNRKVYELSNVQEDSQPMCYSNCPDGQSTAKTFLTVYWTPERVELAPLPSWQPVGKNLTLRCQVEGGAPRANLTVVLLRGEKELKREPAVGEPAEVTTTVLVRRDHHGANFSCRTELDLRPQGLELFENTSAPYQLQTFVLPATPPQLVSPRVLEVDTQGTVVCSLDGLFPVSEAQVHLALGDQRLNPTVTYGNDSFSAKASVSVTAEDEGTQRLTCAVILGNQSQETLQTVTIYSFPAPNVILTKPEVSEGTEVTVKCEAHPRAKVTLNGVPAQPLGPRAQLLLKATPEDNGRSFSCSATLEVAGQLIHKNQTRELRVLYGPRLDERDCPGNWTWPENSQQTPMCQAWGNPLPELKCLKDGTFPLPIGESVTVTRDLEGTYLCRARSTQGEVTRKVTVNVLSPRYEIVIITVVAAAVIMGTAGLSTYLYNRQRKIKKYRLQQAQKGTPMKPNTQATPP

Compound: COc1cccc2c1C(=O)c1c(O)c3c(c(O)c1C2=O)C[C@@](O)(C(=O)CO)C[C@@H]3O[C@H]1C[C@H](N)[C@H](O)[C@H](C)O1 [free Dox, Doxorubicin]
Anti-tumor efficacy [1]: very limited efficacy

cellular internalization rate in three TNBC cell lines relative to MCF10A cells (imaging flow cytometry) [2]: 42 to 109 fold
cellular internalization rate in three TNBC cell lines relative to non-targeting IgG (imaging flow cytometry) [2]: 21 to 129 fold
Compound: Phycoerythrin (PE)-conjugated anti-human ICAM1 antibody (Clone: HCD54)

Compound: sacituzumab govitecan
Resistance of MDA-MB-231 cells [3]: resistant
Median progression-free survival [4]: 5.5 months
Response rate [4]: ~33%
